Results taken from paper PMC10648852, “Molecular drivers of resistance to sulbactam-durlobactam in contemporary clinical isolates of Acinetobacter baumannii” (Antimicrobial Agents and Chemotherapy, 2023).
Read-outs that look alike come from different tables or passages of the source.

How the values were obtained:
[1] = tested on: isogenic A. baylyi ADP1 panel encoding wildtype or mutant PBP3; assay: Broth microdilution MIC, isogenic A. baylyi panel (PBP3 variants with or without overexpressed β-lactamases); assay type: cell-based; conditions: for MIC: Acinetobacter baylyi, A. baylyi
Protocol: To understand the effect of PBP3 variants on whole cell activity in the absence of other resistance determinants, the MIC values of sulbactam, SUL-DUR and comparator β-lactams were measured against an isogenic A. baylyi panel engineered to contain individual strains in which the endogenous PBP3 was replaced with the variant of interest.
Each of the A. baylyi panel members were then transformed with plasmids that constitutively expressed five distinct, representative β-lactamases commonly found in Acinetobacter clinical isolates (TEM-1, ADC-30, OXA-23, OXA-24 or OXA-66) and evaluated for changes in antibiotic susceptibility. […] . […] .
The isogenic A. baylyi panel used for chromosomal expression of various PBP3 mutants with or without constitutive expression of various β-lactamases were constructed as part of this study. The A. baylyi ADP1 PBP3 ORF was cloned into pUC19 with a gentamicin cassette inserted downstream of the PBP3 ORF for selection purposes. Additionally, 500 bp of flanking homology to the ADP1 genome were inserted upstream of the PBP3 ORF and downstream of the gentamicin cassette. […] Linear DNA consisting of the 500 bp upstream-PBP3-Gent-500 bp downstream fragment was cloned out of the pUC19 plasmid by PCR and used for transformation of the ADP1 strain. The strain was grown at 30°C overnight in LB medium shaking at 250 rpm. Seventy microliters of the overnight ADP1 culture were combined with 1 mL of fresh LB and 200 ng of linear DNA fragment and incubated for 5 h at 30°C and shaking at 200 rpm. Various dilutions of each culture were plated on LB agar supplemented with 10 µg/mL of gentamicin to select for transformants with successful chromosomal integrations. Integrants were verified by Sanger sequencing using purified genomic DNA.
For the constitutive expression of various β-lactamases, ORFs of bla TEM-1, bla ADC-30, bla OXA-23, bla OXA-24, and bla OXA-66 were cloned by PCR from various clinical strains that encode these genes and inserted into the pWH1266 plasmid modified to encode a kanamycin cassette for selection. These plasmids along with an empty vector were used to transform each of the A. baylyi ADP1 strains engineered above that encode wild-type PBP3 or variants. Transformations were carried out as done above with selection on LB agar supplemented with 20 µg/mL of kanamycin.
(§1) Antimicrobial susceptibility testing was performed using broth microdilution following standardized methods established by the Clinical Laboratory Standards Institute (CLSI) ([35], [36]). Quality control testing was performed as specified by CLSI using A. baumannii NCTC 13304 ([35]). MIC values were interpreted using CLSI breakpoints for all antimicrobial agents except those for which CLSI breakpoints are not available ([35]). SUL-DUR was tested as twofold dilutions of sulbactam in combination with a fixed concentration of 4 µg/mL durlobactam ([35]).

A. baumannii PBP3 S390T [2] = tested on: A. baumannii PBP3 S390T; parameters: method as in McLeod et al. (2018); conditions: average ± SD, ref McLeod et al. (2018); cited from earlier work
A. baumannii PBP3 S395F [3] = tested on: A. baumannii PBP3 S395F; parameters: method as in McLeod et al. (2018); conditions: average ± SD, ref McLeod et al. (2018); cited from earlier work
[4] = tested on: A. baumannii wild-type PBP3; assay: Acylation rate constant (kinact/Ki), fluorescence anisotropy competition with BOCILLIN; conditions: Wildtype PBP3
A. baumannii PBP3 H370Y = assay: as above
A. baumannii PBP3 N377Y = assay: as above
A. baumannii PBP3 S390T [5] = assay: as above; conditions: variant data from McLeod et al. (2018)
A. baumannii PBP3 N392T = assay: as above
A. baumannii PBP3 S395F [6] = assay: as above; conditions: variant data from McLeod et al. (2018)
A. baumannii PBP3 Q488K = assay: as above
[7] = tested on: A. baumannii AB5075 and transposon mutants in efflux genes; assay: Broth microdilution MIC, isogenic A. baumannii transposon mutants in efflux genes; assay type: cell-based; conditions: for In vitro activity (MIC): tested in duplicate
Protocol: (§2) To further assess the role of efflux in SUL-DUR activity against Acinetobacter spp., two panels of A. baumannii isogenic strains were tested. The first consisted of 7 members of an A. baumannii transposon library ([28]) with single gene disruptions in the adeABC, adeIJK, or adeT loci as compared to the parent strain, AB5075. […] This panel of strains consists of four different point mutants in AdeR and five different point mutants in AdeS, which result in the upregulation of AdeABC expression. In addition, this panel contains chromosomal deletions of adeL and adeN, which result in overexpression of AdeFGH and AdeIJK, respectively ([29]).
The parent and each isogenic mutant strain in both panels was measured for susceptibility to sulbactam, durlobactam, SUL-DUR, imipenem, and gentamicin. […].
(§3) The AB5075 parent strain as well as transposon interrupted AdeABC, AdeIJK, and AdeT were purchased from the Manoil laboratory at the University of Washington from their arrayed transposon mutant collection ([28]). The KAB1544 parent as well as efflux pump regulator mutants and deletions were constructed as previously described ([29]).
as §1

[8] = tested on: A. baumannii KAB1544 and efflux overexpression mutants; assay: Broth microdilution MIC, isogenic A. baumannii overexpression efflux mutants; assay type: cell-based; conditions: Acinetobacter baumannii
Protocol: as §2
In contrast, sulbactam, SUL-DUR, and imipenem MIC values were unaffected by these mutants (Table 4).
as §3, §1

For `C[C@H]1[C@H](NC(=O)/C(=N\OC(C)(C)C(=O)O)c2csc(N)n2)C(=O)N1S(=O)(=O)O` [aztreonam], the MIC ([1]; PBP3 H370Y, overexpressed ADC-30) was 32 µg/mL, the MIC ([1]; PBP3 H370Y, overexpressed OXA-23) was 64 µg/mL and the MIC ([1]; PBP3 H370Y, overexpressed OXA-24) was 64 µg/mL. The MIC ([1]; PBP3 H370Y, overexpressed OXA-66) was 64 µg/mL, the MIC ([1]; PBP3 H370Y, overexpressed TEM-1) was 64 µg/mL and the MIC ([1]; PBP3 H370Y, β-lactamase None (empty vector)) was 64 µg/mL. The MIC ([1]; PBP3 Wildtype, overexpressed ADC-30, read-out: MIC) was 32 µg/mL, the MIC ([1]; PBP3 Wildtype, overexpressed OXA-23, read-out: MIC) was 64 µg/mL and the MIC ([1]; PBP3 Wildtype, overexpressed OXA-24, read-out: MIC) was 32 µg/mL. It also gave an MIC ([1]; PBP3 Wildtype, overexpressed OXA-66, read-out: MIC) of 32 µg/mL, an MIC ([1]; PBP3 Wildtype, overexpressed TEM-1, read-out: MIC) of 32 µg/mL and an MIC ([1]; PBP3 Wildtype, β-lactamase None (empty vector), read-out: MIC) of 32 µg/mL. For the same molecule, the “changes in MIC values in the presence of β-lactamase” value ([1]; wildtype PBP3 strain, five overexpressed β-lactamases) was ≤ 2 fold, the “k inact/K i” value (A. baumannii PBP3 S390T [2]) was 900 ± 300 ([3]) M^-1s^-1 and the “k inact/K i” value (A. baumannii PBP3 S395F [3]) was 110 ± 20 ([3]) M^-1s^-1. For the same molecule, the “% WT” value [4] was 100%, the “k inact/K i” value ([4]; average ± SD) was 700 ± 100 ([10]) M^-1s^-1 and the “% WT” value (A. baumannii PBP3 H370Y) was 61.4%. For the same molecule, the “k inact/K i” value (A. baumannii PBP3 H370Y; average ± SD) was 430 ± 30 ([2]) M^-1s^-1, the “% WT” value (A. baumannii PBP3 N377Y) was 72.9% and the “k inact/K i” value (A. baumannii PBP3 N377Y; average ± SD) was 510 ± 60 ([2]) M^-1s^-1. For the same molecule, the “% WT” value (A. baumannii PBP3 S390T [5]) was 128.6%, the “% WT” value (A. baumannii PBP3 N392T) was 22.9% and the “k inact/K i” value (A. baumannii PBP3 N392T; average ± SD) was 160 ± 20 ([2]) M^-1s^-1. The “% WT” value (A. baumannii PBP3 S395F [6]) was 15.7%, the “% WT” value (A. baumannii PBP3 Q488K) was 65.7% and the “k inact/K i” value (A. baumannii PBP3 Q488K; average ± SD) was 460 ± 50 ([2]) M^-1s^-1.

With `CC1=C[C@@H]2CN(C(=O)N2OS(=O)(=O)O)[C@@H]1C(N)=O` [durlobactam] the In vitro activity (MIC) ([7]; Parent (AB5075)) was 128 µg/mL, the In vitro activity (MIC) ([7]; adeA::tn in AB5075) was 64 µg/mL and the In vitro activity (MIC) ([7]; adeB::tn in AB5075) was 256 µg/mL. It also gave an In vitro activity (MIC) ([7]; adeC::tn in AB5075) of 256 µg/mL, an In vitro activity (MIC) ([7]; adeI::tn in AB5075) of 64 µg/mL and an In vitro activity (MIC) ([7]; adeJ::tn in AB5075) of 32 µg/mL. The “changes in MIC values as compared to the parent strain” value ([7]; adeK::Tn mutant, AB5075) was 4 fold, the In vitro activity (MIC) ([7]; adeK::tn in AB5075) was 32 µg/mL and the In vitro activity (MIC) ([7]; adeT::tn in AB5075) was 128 µg/mL. The “changes in MIC values as compared to the parent strain” value ([7]; {}) was 4 fold, the MIC ([8]; AdeR A91V, AdeABC overexpressed, read-out: MIC) was 32 µg/mL and the MIC ([8]; AdeR D20N, AdeABC overexpressed, read-out: MIC) was 64 µg/mL. For the same molecule, the MIC ([8]; AdeR E219A, AdeABC overexpressed, read-out: MIC) was 128 µg/mL, the MIC ([8]; AdeR P116L, AdeABC overexpressed, read-out: MIC) was 64 µg/mL and the MIC ([8]; AdeS A94V, AdeABC overexpressed, read-out: MIC) was 64 µg/mL. The MIC ([8]; AdeS G30D, AdeABC overexpressed, read-out: MIC) was 64 µg/mL, the MIC ([8]; AdeS G103D, AdeABC overexpressed, read-out: MIC) was 64 µg/mL and the MIC ([8]; AdeS R152K, AdeABC overexpressed, read-out: MIC) was 64 µg/mL. The MIC ([8]; AdeS T153M, AdeABC overexpressed, read-out: MIC) was 32 µg/mL, the MIC ([8]; Parent (KAB1544), no efflux pump overexpressed, read-out: MIC) was 128 µg/mL and the MIC ([8]; ΔadeL, AdeFGH overexpressed) was 64 µg/mL. The MIC ([8]; ΔadeN, AdeIJK overexpressed) was 128 µg/mL.
